# Experimental data reported in patent US20120255051A1, “HERBICIDE TOLERANT PLANTS” (priority 2009, published 2012).
# “And” between values parts separate entries of the source, which are not always exact repeats. Equal values may be shown once.
# Tested on: Brassica plants comprising mutant AHAS alleles
# Assay: Field trial, pre-planting treatment (0, 10, 20, 30 g a.i./ha), two locations in Canada: ERG, EST1, EST2, PPTOX, VIG1, VIG2, VIG3 scores
# Format: in vivo, Brassica napus
# Source text: Tests were set up and conducted to asses the growth and performance of plants comprising AHAS full knock-out alleles, and to further analyze the correlation between the presence of full knockout and missense AHAS genes in Brassica plants and plant growth and herbicide tolerance of the Brassica plants in the field. To this end, the Brassica plants identified in Example 1 and 2 were backcrossed two times with an elite parent line, and subsequently selfed twice to obtain homozygous plants (BC2S2). Plants were grown as row plots in a split plot design with three replicates (main plots=herbicide treatments, subplots=genotypes) at two locations in Canada. Treatment pre-planting was carried out on the soil about two days before sowing with a dose of 0 (treatment A), 10 (treatment B), 20 (treatment C) or 30 (treatment D) g a.i./ha of thiencarbazone methyl. Herbicide tolerance was measured by scoring for different parameters. The parameter emergence (ERG) was scored at the cotyledon stage on a scale 1-9, where 1 means late emergence and 9 means early emergence. Establishment was scored 14 days after sowing (EST1) and 21 days after sowing (EST2). Scores were from 1 to 9, where 1 is the worst establishment (least plants that emerged), and 9 is the best establishment (most plants emerged). Phytotoxicity (PPTOX) was determined after establishment. Plants were evaluated on a scale of 1 to 9, where 1=completely yellowing, 5=50% of plant is yellow and 9=no yellowing. The vigor scores (see above) were determined at 1-2 leaf stage (VIG1), 7 days after VIG1 (VIG2) and 14 days after VIG1 (VIG3). The average values (Av) and standard deviations (SD) of the scores for the different parameters are represented in Table 7a-g.
# Further, the contribution of the knock-out allele to herbicide tolerance conferred by the missense allele was calculated. First, the scores were corrected for a possible effect of the growth per se, independent of herbicide treatment. To this end, the scores for treatments B, C and D were divided by the scores for treatment A for the same genotype and for the same parameter (corrected herbicide tolerance scores). Next, the effect of the knock-out allele to these corrected herbicide tolerance scores obtained by the missense allele was calculated. Therefore, the corrected herbicide tolerance scores for the missense—knock-out allele combination was divided by the corrected herbicide tolerance scores for the missense allele—wild-type combination. In case the knock-out allele has no effect on herbicide tolerance conferred by the missense allele, this ratio should be 1. In case the knock-out allele positively contributes to the herbicide tolerance conferred by the missense allele, this ratio should be higher than 1. The results for the contribution of the knock-out allele to herbicide tolerance conferred by the missense allele as calculated above are shown in table 8.
# [1] = Location B, treatment D 30 g a.i./ha pre-planting, ratio >1 = positive contribution
compound,measurement,setting,value
"COC(=O)c1csc(C)c1S(=O)(=O)NC(=O)n1nc(OC)n(C)c1=O [thiencarbazone-methyl, methyl 4-[(4,5-dihydro-3-methoxy-4-methyl-5-oxo-1H-1,2,4-triazol-1-yl)carbonylsulfamoyl]-5-methylthiophene-3-carboxylate]",relative contribution of HETO104 (AHAS3 KO) to herbicide tolerance conferred by HETO108 (AHAS1 missense): EST2,[1],0.95
same,relative contribution of HETO104 (AHAS3 KO) to herbicide tolerance conferred by HETO108 (AHAS1 missense): PPTOX,[1],1.44
same,relative contribution of HETO104 (AHAS3 KO) to herbicide tolerance conferred by HETO108 (AHAS1 missense): VIG1,[1],1.40
same,relative contribution of HETO104 (AHAS3 KO) to herbicide tolerance conferred by HETO108 (AHAS1 missense): VIG2,[1],1.38
same,relative contribution of HETO104 (AHAS3 KO) to herbicide tolerance conferred by HETO108 (AHAS1 missense): VIG3,[1],1.34
same,relative contribution of HETO112 (AHAS1 KO) to herbicide tolerance conferred by HETO111 (AHAS3 missense): ERG,[1],0.88
same,relative contribution of HETO112 (AHAS1 KO) to herbicide tolerance conferred by HETO111 (AHAS3 missense): EST1,[1],0.97
same,relative contribution of HETO112 (AHAS1 KO) to herbicide tolerance conferred by HETO111 (AHAS3 missense): EST2,[1],0.92
same,relative contribution of HETO112 (AHAS1 KO) to herbicide tolerance conferred by HETO111 (AHAS3 missense): PPTOX,[1],0.76
same,relative contribution of HETO112 (AHAS1 KO) to herbicide tolerance conferred by HETO111 (AHAS3 missense): VIG1,[1],0.75
same,relative contribution of HETO112 (AHAS1 KO) to herbicide tolerance conferred by HETO111 (AHAS3 missense): VIG2,[1],1.07
same,relative contribution of HETO112 (AHAS1 KO) to herbicide tolerance conferred by HETO111 (AHAS3 missense): VIG3,[1],1.11
same,"vigor3 (VIG3) score, Av","plants AHAS1 HETO108 / AHAS3 HETO104, 10 g a.i./ha (treatment B) pre-planting, Location A",8.00
same,"vigor3 (VIG3) score, Av","plants AHAS1 HETO108 / AHAS3 HETO104, 10 g a.i./ha (treatment B) pre-planting, Location B",5.33
same,"vigor3 (VIG3) score, Av","plants AHAS1 HETO108 / AHAS3 HETO104, 20 g a.i./ha (treatment C) pre-planting, Location A",6.67
same,"vigor3 (VIG3) score, Av","plants AHAS1 HETO108 / AHAS3 HETO104, 20 g a.i./ha (treatment C) pre-planting, Location B",6.67
same,"vigor3 (VIG3) score, Av","plants AHAS1 HETO108 / AHAS3 HETO104, 30 g a.i./ha (treatment D) pre-planting, Location A",6.67
same,"vigor3 (VIG3) score, Av","plants AHAS1 HETO108 / AHAS3 HETO104, 30 g a.i./ha (treatment D) pre-planting, Location B",6.00
same,"vigor3 (VIG3) score, Av","plants AHAS1 HETO108 / AHAS3 HETO111, 10 g a.i./ha (treatment B) pre-planting, Location A",8.33
same,"vigor3 (VIG3) score, Av","plants AHAS1 HETO108 / AHAS3 HETO111, 10 g a.i./ha (treatment B) pre-planting, Location B",7.67
same,"vigor3 (VIG3) score, Av","plants AHAS1 HETO108 / AHAS3 HETO111, 20 g a.i./ha (treatment C) pre-planting, Location A",7.00
same,"vigor3 (VIG3) score, Av","plants AHAS1 HETO108 / AHAS3 HETO111, 20 g a.i./ha (treatment C) pre-planting, Location B",6.67
same,"vigor3 (VIG3) score, Av","plants AHAS1 HETO108 / AHAS3 HETO111, 30 g a.i./ha (treatment D) pre-planting, Location A",8.00
same,"vigor3 (VIG3) score, Av","plants AHAS1 HETO108 / AHAS3 HETO111, 30 g a.i./ha (treatment D) pre-planting, Location B",4.33
same,"vigor3 (VIG3) score, Av","plants AHAS1 HETO108 / AHAS3 WT, 10 g a.i./ha (treatment B) pre-planting, Location A",8.33 and 7.67
same,"vigor3 (VIG3) score, Av","plants AHAS1 HETO108 / AHAS3 WT, 10 g a.i./ha (treatment B) pre-planting, Location B",5.33 and 6.00
same,"vigor3 (VIG3) score, Av","plants AHAS1 HETO108 / AHAS3 WT, 20 g a.i./ha (treatment C) pre-planting, Location A",7.33 and 7.00
same,"vigor3 (VIG3) score, Av","plants AHAS1 HETO108 / AHAS3 WT, 20 g a.i./ha (treatment C) pre-planting, Location B",6.33 and 8.00
same,"vigor3 (VIG3) score, Av","plants AHAS1 HETO108 / AHAS3 WT, 30 g a.i./ha (treatment D) pre-planting, Location A",7.00 and 7.33
same,"vigor3 (VIG3) score, Av","plants AHAS1 HETO108 / AHAS3 WT, 30 g a.i./ha (treatment D) pre-planting, Location B",5.33
same,"vigor3 (VIG3) score, Av","plants AHAS1 HETO112 / AHAS3 HETO111, 10 g a.i./ha (treatment B) pre-planting, Location A",8.00
same,"vigor3 (VIG3) score, Av","plants AHAS1 HETO112 / AHAS3 HETO111, 10 g a.i./ha (treatment B) pre-planting, Location B",7.33
same,"vigor3 (VIG3) score, Av","plants AHAS1 HETO112 / AHAS3 HETO111, 20 g a.i./ha (treatment C) pre-planting, Location A",7.00
same,"vigor3 (VIG3) score, Av","plants AHAS1 HETO112 / AHAS3 HETO111, 20 g a.i./ha (treatment C) pre-planting, Location B",5.67
same,"vigor3 (VIG3) score, Av","plants AHAS1 HETO112 / AHAS3 HETO111, 30 g a.i./ha (treatment D) pre-planting, Location A",7.67
same,"vigor3 (VIG3) score, Av","plants AHAS1 HETO112 / AHAS3 HETO111, 30 g a.i./ha (treatment D) pre-planting, Location B",5.67
same,"vigor3 (VIG3) score, Av","plants AHAS1 HETO112 / AHAS3 WT, 10 g a.i./ha (treatment B) pre-planting, Location A",1.00
same,"vigor3 (VIG3) score, Av","plants AHAS1 HETO112 / AHAS3 WT, 10 g a.i./ha (treatment B) pre-planting, Location B",1.00
same,"vigor3 (VIG3) score, Av","plants AHAS1 HETO112 / AHAS3 WT, 20 g a.i./ha (treatment C) pre-planting, Location A",1.00
same,"vigor3 (VIG3) score, Av","plants AHAS1 HETO112 / AHAS3 WT, 20 g a.i./ha (treatment C) pre-planting, Location B",1.00
same,"vigor3 (VIG3) score, Av","plants AHAS1 HETO112 / AHAS3 WT, 30 g a.i./ha (treatment D) pre-planting, Location A",1.00
same,"vigor3 (VIG3) score, Av","plants AHAS1 HETO112 / AHAS3 WT, 30 g a.i./ha (treatment D) pre-planting, Location B",1.00
same,"vigor3 (VIG3) score, Av","plants AHAS1 WT / AHAS3 HETO104, 10 g a.i./ha (treatment B) pre-planting, Location A",1.00
same,"vigor3 (VIG3) score, Av","plants AHAS1 WT / AHAS3 HETO104, 10 g a.i./ha (treatment B) pre-planting, Location B",1.00
same,"vigor3 (VIG3) score, Av","plants AHAS1 WT / AHAS3 HETO104, 20 g a.i./ha (treatment C) pre-planting, Location A",1.00
same,"vigor3 (VIG3) score, Av","plants AHAS1 WT / AHAS3 HETO104, 20 g a.i./ha (treatment C) pre-planting, Location B",1.00
same,"vigor3 (VIG3) score, Av","plants AHAS1 WT / AHAS3 HETO104, 30 g a.i./ha (treatment D) pre-planting, Location A",1.00
same,"vigor3 (VIG3) score, Av","plants AHAS1 WT / AHAS3 HETO104, 30 g a.i./ha (treatment D) pre-planting, Location B",1.00
same,"vigor3 (VIG3) score, Av","plants AHAS1 WT / AHAS3 HETO111, 10 g a.i./ha (treatment B) pre-planting, Location A",7.67 and 7.00
same,"vigor3 (VIG3) score, Av","plants AHAS1 WT / AHAS3 HETO111, 10 g a.i./ha (treatment B) pre-planting, Location B",7.33
same,"vigor3 (VIG3) score, Av","plants AHAS1 WT / AHAS3 HETO111, 20 g a.i./ha (treatment C) pre-planting, Location A",6.67
same,"vigor3 (VIG3) score, Av","plants AHAS1 WT / AHAS3 HETO111, 20 g a.i./ha (treatment C) pre-planting, Location B",6.00
same,"vigor3 (VIG3) score, Av","plants AHAS1 WT / AHAS3 HETO111, 30 g a.i./ha (treatment D) pre-planting, Location A",6.67 and 6.33
same,"vigor3 (VIG3) score, Av","plants AHAS1 WT / AHAS3 HETO111, 30 g a.i./ha (treatment D) pre-planting, Location B",4.67 and 5.33
same,"vigor3 (VIG3) score, Av","plants AHAS1 WT / AHAS3 WT, 10 g a.i./ha (treatment B) pre-planting, Location A",1.00
same,"vigor3 (VIG3) score, Av","plants AHAS1 WT / AHAS3 WT, 10 g a.i./ha (treatment B) pre-planting, Location B",1.33
same,"vigor3 (VIG3) score, Av","plants AHAS1 WT / AHAS3 WT, 20 g a.i./ha (treatment C) pre-planting, Location A",1.00
same,"vigor3 (VIG3) score, Av","plants AHAS1 WT / AHAS3 WT, 20 g a.i./ha (treatment C) pre-planting, Location B",1.00
same,"vigor3 (VIG3) score, Av","plants AHAS1 WT / AHAS3 WT, 30 g a.i./ha (treatment D) pre-planting, Location A",1.00
same,"vigor3 (VIG3) score, Av","plants AHAS1 WT / AHAS3 WT, 30 g a.i./ha (treatment D) pre-planting, Location B",1.00
